Test results from patent publication US10519177B2, “Heterocyclic compounds and uses thereof” (Plexxikon Inc., priority 2013, dated 2019).

Molecular target: BRD4-BD1 (44-164) (Homo sapiens (Human), UniProt O60885)
Assay: Alphascreen binding assay BRD4-BD1
Settings: BRD4(1) H4; read-out: Biochemical activity (IC50 μM) BRD4(1) H4
How it was run: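 AlphaScreen signal (nickel acceptor, streptavidin donor beads, 7.5 µg/ml each, read 30 min after addition) reports displacement of biotin-H4 K5/K8/K12/K16-acetyl peptide from His-BRD4 BD1 (44-164) or tandem BD12 (1-477).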

SMILES | IC50
CCc1[nH]c2ncc(-c3c(C)noc3C)cc2c1Cc1ccccc1Cl [P-0049, 4-[3-[(2-chlorophenyl)methyl]-2-ethyl-1H-pyrrolo[2,3-b]pyridin-5-yl]-3,5-dimethyl-isoxazole] | < 1 µM
Cc1noc(C)c1-c1cnc2c(-c3cnn(C)c3)cn(C(CC#N)C3CCCC3)c2c1 (stereo not shown) [P-0197, 3-cyclopentyl-3-[6-(3,5-dimethylisoxazol-4-yl)-3-(1-methylpyrazol-4-yl)pyrrolo[3,2-b]pyridin-1-yl]propanenitrile] | < 1 µM
Cc1noc(C)c1-c1cnc2c(-c3cnn(C4CCOC4)c3)cn(S(=O)(=O)C3CCCC3)c2c1 (stereo not shown) [P-0153, 4-[1-cyclopentyl-sulfonyl-3-(1-tetrahydrofuran-3-ylpyrazol-4-yl)pyrrolo[3,2-b]pyridin-6-yl]-3,5-dimethyl-isoxazole] | < 1 µM
COc1ncc(-c2cn(S(=O)(=O)C3CCCC3)c3cc(-c4c(C)noc4C)cnc23)cn1 [P-0105, 4-[1-cyclopentylsulfonyl-3-(2-methoxypyrimidin-5-yl)pyrrolo[3,2-b]pyridin-6-yl]-3,5-dimethyl-isoxazole] | < 1 µM
CCCS(=O)(=O)n1cc(-c2cnn(CCOC)c2)c2ncc(-c3c(C)noc3C)cc21 [P-0152, 4-[3-[1-(2-methoxy-ethyl)pyrazol-4-yl]-1-propylsulfonyl-pyrrolo[3,2-b]pyridin-6-yl]-3,5-dimethyl-isoxazole] | < 1 µM
Cc1noc(C)c1-c1cnc2c(-c3cnn(C4CCCCO4)c3)cn(S(=O)(=O)c3ccccc3)c2c1 (stereo not shown) [P-0168, 4-[1-(benzenesulfonyl)-3-(1-tetrahydropyran-2-ylpyrazol-4-yl)pyrrolo[3,2-b]pyridin-6-yl]-3,5-dimethyl-isoxazole] | < 1 µM
Cc1noc(C)c1-c1cnc2c(-c3cnn(C)c3)cn(C(CF)c3ccccc3)c2c1 (stereo not shown) [P-0187, 4-[1-(2-fluoro-1-phenyl-ethyl)-3-(1-methylpyrazol-4-yl)pyrrolo[3,2-b]pyridin-6-yl]-3,5-dimethyl-isoxazole] | < 1 µM
Cc1noc(C)c1-c1cnc2ccn(C(C)c3ccccc3)c2c1 (stereo not shown) [P-0159, 3,5-dimethyl-4-[1-(1-phenylethyl)pyrrolo[3,2-b]pyridin-6-yl]isoxazole] | < 1 µM
CC(=O)N1CCC(Cc2cn(C)c3ncc(-c4c(C)noc4C)cc23)CC1 [P-0120, 1-[4-[[5-(3,5-dimethylisoxazol-4-yl)-1-methyl-pyrrolo[2,3-b]pyridin-3-yl]methyl]-1-piperidyl]ethanone] | < 1 µM
Cc1noc(C)c1-c1cnc2[nH]cc(C(O)c3ccccc3Cl)c2c1 (stereo not shown) [P-0019, (2-chlorophenyl)-[5-(3,5-dimethylisoxazol-4-yl)-1H-pyrrolo[2,3-b]pyridin-3-yl]methanol] | < 1 µM
COCCn1cc(-c2cn(S(=O)(=O)c3ccccc3)c3cc(-c4c(C)noc4C)cnc23)cn1 [P-0147, 4-[1-(benzenesulfonyl)-3-[1-(2-methoxyethyl)pyrazol-4-yl]pyrrolo[3,2-b]pyridin-6-yl]-3,5-dimethyl-isoxazole] | < 1 µM
Cc1noc(C)c1-c1cnc2c(-c3cnn(C)c3)cn(CC3CC(F)(F)C3)c2c1 [P-0213, 4-[1-[(3,3-difluorocyclobutyl)methyl]-3-(1-methylpyrazol-4-yl)pyrrolo[3,2-b]pyridin-6-yl]-3,5-dimethyl-isoxazole] | < 1 µM
C=CCn1cc(-c2cn(C(C)c3ccccc3)c3cc(-c4c(C)noc4C)cnc23)cn1 (stereo not shown) [P-0201, 4-[3-(1-allylpyrazol-4-yl)-1-(1-phenylethyl)pyrrolo[3,2-b]pyridin-6-yl]-3,5-dimethyl-isoxazole] | < 1 µM
Cc1noc(C)c1-c1cnc2c(-c3cnn(C)c3)cn(Cc3cscn3)c2c1 [P-0171, 3,5-dimethyl-4-[3-(1-methylpyrazol-4-yl)-1-(thiazol-4-ylmethyl)pyrrolo[3,2-b]pyridin-6-yl]isoxazole] | < 1 µM
Cc1noc(C)c1-c1cnc2[nH]cc(C3=CCC(F)(F)CC3)c2c1 [P-0029, 4-[3-(4,4-difluorocyclo-hexen-1-yl)-1H-pyrrolo[2,3-b]pyridin-5-yl]-3,5-dimethyl-isoxazole] | < 1 µM
Cc1noc(C)c1-c1cnc2c(-c3cnn(C)c3)cn(S(=O)(=O)c3ccccc3F)c2c1 [P-0121, 4-[1-(2-fluorophenyl)sulfonyl-3-(1-methyl-pyrazol-4-yl)pyrrolo[3,2-b]pyridin-6-yl]-3,5-dimethyl-isoxazole] | < 1 µM
Cc1noc(C)c1-c1cnc2c(C#CCO)cn(S(=O)(=O)c3ccccc3)c2c1 [P-0155, 3-[1-(benzenesulfonyl)-6-(3,5-dimethylisoxazol-4-yl)pyrrolo[3,2-b]pyridin-3-yl]prop-2-yn-1-ol] | < 1 µM
C=CCn1cc(-c2cn(S(=O)(=O)CCC)c3cc(-c4c(C)noc4C)cnc23)cn1 [P-0137, 4-[3-(1-allylpyrazol-4-yl)-1-propylsulfonyl-pyrrolo[3,2-b]pyridin-6-yl]-3,5-dimethyl-isoxazole] | < 1 µM
Cc1noc(C)c1-c1cnc2c(-c3cnn(C)c3)cn(Cc3c(F)cccc3F)c2c1 [P-0173, 4-[1-[(2,6-difluorophenyl)methyl]-3-(1-methylpyrazol-4-yl)pyrrolo[3,2-b]pyridin-6-yl]-3,5-dimethyl-isoxazole] | < 1 µM
COCCn1cc(-c2cn(S(=O)(=O)C3CCCC3)c3cc(-c4c(C)noc4C)cnc23)cn1 [P-0151, 4-[1-cyclopentyl-sulfonyl-3-[1-(2-methoxyethyl)pyrazol-4-yl]pyrrolo[3,2-b]pyridin-6-yl]-3,5-dimethyl-isoxazole] | < 1 µM
Cc1noc(C)c1-c1cnc2ccn(S(=O)(=O)c3ccccc3)c2c1 [P-0038, 4-[1-(benzenesulfonyl)pyrrolo[3,2-b]pyridin-6-yl]-3,5-dimethyl-isoxazole] | < 1 µM
CCn1cc(-c2cn(C(C)c3ccccc3)c3cc(-c4c(C)noc4C)cnc23)cn1 (stereo not shown) [P-0200, 4-[3-(1-ethylpyrazol-4-yl)-1-(1-phenylethyl)pyrrolo[3,2-b]pyridin-6-yl]-3,5-dimethyl-isoxazole] | < 1 µM
Cc1noc(C)c1-c1cnc2c(-c3cnn(C(F)F)c3)cn(S(=O)(=O)C3CCCC3)c2c1 [P-0133, 4-[1-cyclopentylsulfonyl-3-[1-(difluoromethyl)pyrazol-4-yl]pyrrolo[3,2-b]pyridin-6-yl]-3,5-dimethyl-isoxazole] | < 1 µM
Cc1noc(C)c1-c1cnc2ccn(Cc3ccccc3)c2c1 [P-0162, 4-(1-benzylpyrrolo[3,2-b]pyridin-6-yl)-3,5-dimethyl-isoxazole] | < 1 µM
Cc1noc(C)c1-c1cnc2c(-c3cnn(C)c3)cn(S(=O)(=O)C3CCCC3)c2c1 [P-0112, 4-[1-cyclopentyl-sulfonyl-3-(1-methyl-pyrazol-4-yl)pyrrolo[3,2-b]pyridin-6-yl]-3,5-dimethyl-isoxazole] | < 1 µM
Cc1noc(C)c1-c1cnc2[nH]cc(Cc3cccc4c3OC(F)(F)O4)c2c1 [P-0048, 4-[3-[(2,2-difluoro-1,3-benzodioxol-4-yl)methyl]-1H-pyrrolo[2,3-b]pyridin-5-yl]-3,5-dimethyl-isoxazole] | < 1 µM
Cc1noc(C)c1-c1cnc2c(I)cn(S(=O)(=O)c3ccccc3)c2c1 [P-0076, 4-[1-(benzenesulfonyl)-3-iodo-pyrrolo[3,2-b]pyridin-6-yl]-3,5-dimethyl-isoxazole] | < 1 µM
Cc1noc(C)c1-c1cnc2c(-c3cccnc3)cn(S(=O)(=O)c3ccccc3)c2c1 [P-0084, 4-[1-(benzenesulfonyl)-3-(3-pyridyl)pyrrolo[3,2-b]pyridin-6-yl]-3,5-dimethyl-isoxazole] | < 1 µM
